Assay results taken from patent US20260274833A1 (NiKang Therapeutics, Inc., priority 2022, published 2026).

biological target: T1, CDK2 (Homo sapiens, UniProt P24941); assay: Phospho-RB measurement in OVCAR3 cells (HTRF phospho-RB cellular kit); assay type: cell-based; settings: inhibition of RB phosphorylation at S807/811 (HTRF, TR-FRET ratio 665/620), 24 h compound treatment, 0.3 to 10,000 nM
T1 construct: endogenous in cells; host or cells: OVCAR3 cells
Procedure: Biological Example 1: Phospho-RB Measurement in OVCAR3 Cells
The ability of compounds of Formula (I) to inhibit CDK2 was determined in OVCAR3 cells by measuring inhibition of phosphorylation of RB protein at S780 and S807/811. Phosphorylation of RB protein at S807/811 were measured using HTRF phospho-RB cellular kits (Cat #64RBS807PEG) from Cisbio.
On Day 1, OVCAR3 cells were seeded into 96-well tissue-culture treated plates at 20,000 cells/well in 200 μL and incubated overnight at 37° C. in CO2 atmosphere. On Day 2, the cells were treated with test compounds at concentrations from 0.3 to 10,000 nM using HP D300 digital dispenser. Twenty-four hours after compound treatment, cell culture media was removed by flicking the plate and tapping the plate against clean paper towel. Immediately 30 μL 1× lysis buffer was supplemented from the kit and the plate was incubated at room temperature on shaker for 30 min. After homogenization by pipetting up and down, 8 μL cell lysate from 96-well cell culture plate was transferred to 384-well small volume white detection plate. 2 μL premixed detection solution was added and the plate was covered with sealer. To prepare the detection solution, d2 conjugated-phospho-RB antibody and Eu-cryptate conjugated phosphor-RB antibody were diluted into detection buffer following manufacturer's instruction.
Detection plates were incubated for 4 h at room temperature and read on ClarioStar (BMG Labtech) in TR-FRET mode ([…]). The TR-FRET ratio (665 nM/620 nM) was plotted against the compound concentration and normalized to DMSO controls. Half maximal inhibition concentration (IC50) values are calculated with a four-parameter logistic fit using GraphPad Prism (version 8; La Jolla, CA).

| SMILES | IC50 [nM] |
| --- | --- |
| COc1cccc2c1CN(S(=O)(=O)Nc1cccc(-c3nc(C45CC(C4)C5)sc3-c3ccnc(NC4CC5(C4)CS(=O)(=O)C5)n3)c1F)C2 [Example 23, N-(3-(2-(bicyclo [1.1.1]pentan-1-yl)-5-(2-((2,2-dioxido-2-thiaspiro[3.3]heptan-6-yl)amino)-pyrimidin-4-yl)thiazol-4-yl)-2-fluorophenyl)-4-methoxyisoindoline-2-sulfonamide] | 136 |
| O=S1(=O)CC2(CC(Nc3nccc(-c4sc(C56CC(C5)C6)nc4-c4cccc(NS(=O)(=O)N5Cc6cccc(OC(F)F)c6C5)c4F)n3)C2)C1 [Example 24, N-(3-(2~(bicyclo [1.1.1]pentan-1-yl)-5-(2-((2,2-dioxido-2-thiaspiro[3.3]heptan-6-yl)amino)-pyrimidin-4-yl)thiazol-4-yl)-2-fluorophenyl)-4-(difluoromethoxy)-isoindoline-2-sulfonamide] | 102 |
| O=S1(=O)CC2(CC(Nc3nccc(-c4sc(C56CC(C5)C6)nc4-c4cccc(NS(=O)(=O)N5Cc6cccc(C(F)(F)F)c6C5)c4F)n3)C2)C1 [Example 25, N-(3-(2-(bicyclo [1.1.1]pentan-1-yl)-5-(2-((2,2-dioxido-2-thiaspiro[3.3]heptan-6-yl)amino)-pyrimidin-4-yl)thiazol-4-yl)-2-fluorophenyl)-4-(trifluoromethyl)-isoindoline-2-sulfonamide] | 75.1 |
| O=S1(=O)CC2(CC(Nc3nccc(-c4sc(C56CC(C5)C6)nc4-c4cccc(NS(=O)(=O)N5Cc6cccc(C(F)F)c6C5)c4F)n3)C2)C1 [Example 28, N-(3-(2-(bicyclo [1.1.1]pentan-1-yl)-5-(2-((2,2-dioxido-2-thiaspiro[3.3]heptan-6-yl)amino)-pyrimidin-4-yl)thiazol-4-yl)-2-fluorophenyl)-4-(difluoromethyl)-isoindoline-2-sulfonamide] | 71.9 |
| CN1CC2CCC(C1)N2c1nc(-c2cccc(NS(=O)(=O)N3Cc4cccc(OC(F)F)c4C3)c2F)c(-c2ccnc(NC3CC4(C3)CS(=O)(=O)C4)n2)s1 [Example 30, 4-(difluoromethoxy)-N-(3-(5-(2-((2,2-dioxido-2-thiaspiro [3.3]heptan-6-yl)amino)pyrimidin-4-yl)-2-(3-methyl-3,8-diazabicyclo [3.2.1]-octan-8-yl)thiazol-4-yl)-2-fluorophenyl)-isoindoline-2-sulfonamide] | 28.5 |
| COc1cccc2c1CN(S(=O)(=O)Nc1cccc(-c3nc(N4C5CCC4CN(C)C5)sc3-c3ccnc(NC4CC5(C4)CS(=O)(=O)C5)n3)c1F)C2 [Example 31, N-(3-(5-(2-((2,2-dioxido-2-thiaspiro-[3.3]-heptan-6-yl)amino)pyrimidin-4-yl)-2-(3-methyl-3,8-diazabicyclo [3.2.1]-octan-8-yl)-thiazol-4-yl)-2-fluoro-phenyl)-4-methoxy-isoindoline-2-sulfonamide] | 30.2 |
| CN1CC2CCC(C1)N2c1nc(-c2cccc(NS(=O)(=O)N3Cc4cccc(C(F)(F)F)c4C3)c2F)c(-c2ccnc(NC3CC4(C3)CS(=O)(=O)C4)n2)s1 [Example 32, N-(3-(5-(2-((2,2-dioxido-2-thiaspiro-[3.3]-heptan-6-yl)amino)pyrimidin-4-yl)-2-(3-methyl-3,8-diazabicyclo[3.2.1]-octan-8-yl)-thiazol-4-yl)-2-fluoro-phenyl)-4-(trifluoro-methyl)isoindoline-2-sulfonamide] | 23.1 |
| O=S1(=O)CC2(CC(Nc3nccc(-c4sc(N5C6CCC5CN(CC(F)(F)F)C6)nc4-c4cccc(NS(=O)(=O)N5Cc6cccc(OC(F)F)c6C5)c4F)n3)C2)C1 [Example 33, 4-(difluoromethoxy)-N-(3-(5-(2-((2,2-dioxido-2-thiaspiro [3.3]heptan-6-yl)amino)pyrimidin-4-yl)-2-(3-(2,2,2-trifluoroethyl)-3,8-diazabicyclo-[3.2.1]octan-8-yl)thiazol-4-yl)-2-fluorophenyl) isoindoline-2-sulfonamide] | 153 |
| O=S1(=O)CC2(CC(Nc3nccc(-c4sc(N5C6CCC5CN(CC(F)(F)F)C6)nc4-c4cccc(NS(=O)(=O)N5CCc6ccccc65)c4F)n3)C2)C1 [Example 38, N-(3-(5-(2-((2,2-dioxido-2-thiaspiro-[3.3]-heptan-6-yl)amino)pyrimidin-4-yl)-2-(3-(2,2,2-trifluoroethyl)-3,8-diazabicyclo[3.2.1]-octan-8-yl)thiazol-4-yl)-2-fluorophenyl)-indoline-1-sulfonamide] | 263 |
| O=S1(=O)CC2(CC(Nc3nccc(-c4sc(N5C6CCC5CN(CC(F)(F)F)C6)nc4-c4cccc(NS(=O)(=O)N5CCc6ccc(C(F)(F)F)cc65)c4F)n3)C2)C1 [Example 39, N-(3-(5-(2-((2,2-dioxido-2-thiaspiro-[3.3]-heptan-6-yl)amino)pyrimidin-4-yl)-2-(3-(2,2,2-trifluoroethyl)-3,8-diazabicyclo[3.2.1]-octan-8-yl)thiazol-4-yl)-2-fluorophenyl)-6-(trifluoromethyl)-indoline-1-sulfonamide] | 752 |

Other lines, results leading:

| IC50 [nM] | SMILES |
| --- | --- |
| 55.7 | O=S1(=O)CC2(CC(Nc3nccc(-c4sc(C56CC(C5)C6)nc4-c4cccc(NS(=O)(=O)N5CCc6ccc(Cl)cc65)c4F)n3)C2)C1 [Example 21, N-(3-(2-(bicyclo [1.1.1]pentan-1-yl)-5-(2-((2,2-dioxido-2-thiaspiro[3.3]heptan-6-yl)amino)-pyrimidin-4-yl)thiazol-4-yl)-2-fluorophenyl)-6-chloroindoline-1-sulfonamide] |
| 477 | CN(C)c1ccc2c(c1)N(S(=O)(=O)Nc1cccc(-c3nc(C45CC(C4)C5)sc3-c3ccnc(NC4CC5(C4)CS(=O)(=O)C5)n3)c1F)CC2 [Example 22, N-(3-(2-(bicyclo [1.1.1]pentan-1-yl)-5-(2-((2,2-dioxido-2-thiaspiro [3.3]heptan-6-yl)amino)-pyrimidin-4-yl)thiazol-4-yl)-2-fluorophenyl)-6-(dimethylamino)-indoline-1-sulfonamide] |
| 160 | C#Cc1ccc2c(c1)N(S(=O)(=O)Nc1cccc(-c3nc(C45CC(C4)C5)sc3-c3ccnc(NC4CC5(C4)CS(=O)(=O)C5)n3)c1F)CC2 [Example 26, N-(3-(2-(bicyclo [1.1.1]pentan-1-yl)-5-(2-((2,2-dioxido-2-thiaspiro[3.3]heptan-6-yl)amino)-pyrimidin-4-yl)thiazol-4-yl)-2-fluorophenyl)-6-ethynylindoline-1-sulfonamide] |
| 161 | O=S1(=O)CC2(CC(Nc3nccc(-c4sc(C56CC(C5)C6)nc4-c4cccc(NS(=O)(=O)N5CCc6ccc(C(F)F)cc65)c4F)n3)C2)C1 [Example 27, N-(3-(2-(bicyclo [1.1.1]pentan-1-yl)-5-(2-((2,2-dioxido-2-thiaspiro[3.3]heptan-6-yl)amino)-pyrimidin-4-yl)thiazol-4-yl)-2-fluorophenyl)-6-(difluoromethyl)-indoline-1-sulfonamide] |
| 70.8 | O=S1(=O)CC2(CC(Nc3nccc(-c4sc(C56CC(C5)C6)nc4-c4cccc(NS(=O)(=O)N5CCc6ccc(F)cc65)c4F)n3)C2)C1 [Example 29, N-(3-(2-(bicyclo [1.1.1]pentan-1-yl)-5-(2-((2,2-dioxido-2-thiaspiro[3.3]heptan-6-yl)amino)-pyrimidin-4-yl)thiazol-4-yl)-2-fluorophenyl)-6-fluoroindoline-1-sulfonamide] |
| 116 | O=S1(=O)CC2(CC(Nc3nccc(-c4sc(C56CC(C5)C6)nc4-c4cccc(NS(=O)(=O)N5CCc6cc(F)c(F)cc65)c4F)n3)C2)C1 [Example 34, N-(3-(2-(bicyclo [1.1.1]pentan-1-yl)-5-(2-((2,2-dioxido-2-thiaspiro[3.3]heptan-6-yl)amino)-pyrimidin-4-yl)thiazol-4-yl)-2-fluorophenyl)-5,6-difluoroindoline-1-sulfonamide] |
| 1590 | O=S1(=O)CC2(CC(Nc3nccc(-c4sc(C56CC(C5)C6)nc4-c4cccc(NS(=O)(=O)N5CCc6cc(C(F)(F)F)ccc65)c4F)n3)C2)C1 [Example 35, N-(3-(2-(bicyclo [1.1.1]pentan-1-yl)-5-(2-((2,2-dioxido-2-thiaspiro[3.3]heptan-6-yl)amino)-pyrimidin-4-yl)thiazol-4-yl)-2-fluorophenyl)-5-(trifluoromethyl)-indoline-1-sulfonamide] |
| 195 | O=S1(=O)CC2(CC(Nc3nccc(-c4sc(C56CC(C5)C6)nc4-c4cccc(NS(=O)(=O)N5CCc6ccc(OC(F)(F)F)cc65)c4F)n3)C2)C1 [Example 36, N-(3-(2-(bicyclo [1.1.1]pentan-1-yl)-5-(2-((2,2-dioxido-2-thiaspiro [3.3]heptan-6-yl)amino)-pyrimidin-4-yl)thiazol-4-yl)-2-fluorophenyl)-6-(trifluoromethoxy) indoline-1-sulfonamide] |
| 74.5 | O=S1(=O)CC2(CC(Nc3nccc(-c4sc(C56CC(C5)C6)nc4-c4cccc(NS(=O)(=O)N5CCc6c(F)cc(F)cc65)c4F)n3)C2)C1 [Example 37, N-(3-(2-(bicyclo [1.1.1]pentan-1-yl)-5-(2-((2,2-dioxido-2-thiaspiro[3.3]heptan-6-yl)amino)-pyrimidin-4-yl)thiazol-4-yl)-2-fluorophenyl)-4,6-difluoroindoline-1-sulfonamide] |
